Tests used:
APC11/APC2 = APC11/APC2 (Homo sapiens, UniProt Q9NYG5+Q9UJX6); assay: APC-11/APC-2 ligase assay (APC auto ubiquitination); type: biochemical; settings: APC assay
Summary of the method: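 His-tagged APC was captured on nickel plates with human E1 (5 ng/well), UbcH5c (20 ng/well), APC (100 ng/well) and Flag-ubiquitin (100 ng/well) in a Tris pH 7.6 reaction buffer containing 2.5 mM ATP, for 1 hour at room temperature. Read-out was anti-Flag/HRP chemiluminescence. IC50 was set against a DMSO control, typically from 6 or 8 concentrations.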

[1] = tested on: ICAM-1 expression in A549 cells; assay: ICAM assay (IL-1 induced ICAM-1/CD54 expression in A549 cells); type: cell-based, human
Summary of the method: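 A549 cells, 10,000/well, preincubated with compound 1 h at 37° C, then stimulated with IL-1 (4 μl of 25 ng/ml added) for 4 h. Surface ICAM-1 detected by anti-CD54 plus anti-mouse IgG staining for 1 h, luminescent read-out after PBS washes.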

Sequence of APC11/APC2 (Q9NYG5 whole entry): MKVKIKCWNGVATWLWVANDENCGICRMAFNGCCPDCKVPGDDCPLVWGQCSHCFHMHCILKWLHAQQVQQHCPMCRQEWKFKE
Sequence of APC11/APC2 (Q9UJX6 whole entry): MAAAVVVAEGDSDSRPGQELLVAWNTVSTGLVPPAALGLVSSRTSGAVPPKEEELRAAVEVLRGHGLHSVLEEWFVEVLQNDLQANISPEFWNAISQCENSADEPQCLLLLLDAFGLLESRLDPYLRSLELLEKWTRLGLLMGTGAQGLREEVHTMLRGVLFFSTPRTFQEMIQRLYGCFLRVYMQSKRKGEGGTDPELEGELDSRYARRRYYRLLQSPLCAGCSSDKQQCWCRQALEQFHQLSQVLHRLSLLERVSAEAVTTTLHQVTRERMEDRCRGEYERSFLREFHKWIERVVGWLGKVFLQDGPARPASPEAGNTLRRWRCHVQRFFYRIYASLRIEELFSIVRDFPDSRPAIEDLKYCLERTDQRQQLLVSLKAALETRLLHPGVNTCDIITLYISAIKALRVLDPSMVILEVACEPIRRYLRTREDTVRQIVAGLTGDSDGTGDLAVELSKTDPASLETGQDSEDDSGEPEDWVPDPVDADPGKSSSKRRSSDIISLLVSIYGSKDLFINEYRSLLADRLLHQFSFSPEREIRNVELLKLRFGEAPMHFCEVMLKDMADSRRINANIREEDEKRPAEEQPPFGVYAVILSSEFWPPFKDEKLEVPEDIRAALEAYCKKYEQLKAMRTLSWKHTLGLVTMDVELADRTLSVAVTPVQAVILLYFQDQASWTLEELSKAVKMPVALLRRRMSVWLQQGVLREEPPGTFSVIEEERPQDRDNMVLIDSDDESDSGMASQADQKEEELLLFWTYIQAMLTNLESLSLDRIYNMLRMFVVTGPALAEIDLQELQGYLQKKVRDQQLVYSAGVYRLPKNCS

IC50 (APC11/APC2) [µM] | IC50 ([1]; Homo sapiens, A549, ICAM assay) [µM] | IC50 ([1]; ICAM assay) [µM] | Compound
1 to 20 |  |  | O=[N+]([O-])c1ccc(Sc2cccc3cccnc23)c2nonc12 [compound 5, 8-[(7-Nitro-2,1,3-benzoxadiazol-4-yl)thio]quinoline]
1 to 20 |  |  | O=[N+]([O-])c1ccc(Oc2c(Cl)cc(S(=O)(=O)Nc3cccc4nsnc34)cc2Cl)c(Cl)c1 [compound 73, N-2,1,3-benzothiadiazol-4-yl-3,5-dichloro-4-(2-chloro-4-nitrophenoxy)benzenesulfonamide]
1 to 20 |  |  | O=S(=O)(Nc1cccc2nonc12)c1ccc(Oc2ncc(C(F)(F)F)cc2Cl)cc1 [compound 78, N-2,1,3-benzoxadiazol-4-yl-4-{[3-chloro-5-(trifluoromethyl)pyridin-2-yl]oxy}benzenesulfonamide]
1 to 20 |  |  | O=[N+]([O-])c1ccc(N2CCN(c3cc(C(F)(F)F)ccn3)CC2)c2nonc12 [compound 90, 4-nitro-7-{4-[4-(trifluoromethyl)pyridin-2-yl]piperazin-1-yl}-2,1,3-benzoxadiazole]
1 to 20 |  |  | O=S(=O)(Nc1cccc2nsnc12)c1ccc(Oc2ccccc2)cc1 [compound 94, N-2,1,3-benzothiadiazol-4-yl-4-phenoxybenzenesulfonamide]
1 to 20 |  |  | O=[N+]([O-])c1ccc(N2CCN(c3ncccn3)CC2)c2nonc12 [compound 109, 4-nitro-7-(1,3-(pyrimidin-2-yl)piperazin-1-yl)-2,1,3-benzoxadiazole]
1 to 20 |  |  | O=[N+]([O-])c1ccc(Oc2ccc(S(=O)(=O)Nc3cccc4nonc34)cc2Cl)c(C(F)(F)F)c1 [compound 114, N-2,1,3-benzoxadiazol-4-yl-3-chloro-4-[4-nitro-2-(trifluoromethyl)phenoxy]benzenesulfonamide]
1 to 20 |  |  | N#Cc1ccc(N2CCN(c3ccc([N+](=O)[O-])c4nonc34)CC2)nc1 [compound 121, 6-[4-(7-nitro-2,1,3-benzoxadiazol-4-yl)piperazin-1-yl]nicotinonitrile]
1 to 20 |  |  | Cc1ccc(N2CCN(c3ccc([N+](=O)[O-])c4nonc34)CC2)cc1C [compound 140, 4-[4-(3,4-dimethylphenyl)piperazin-1-yl]-7-nitro-2,1,3-benzoxadiazole]
1 to 20 |  |  | Cc1ccc(Cl)cc1N1CCN(c2ccc([N+](=O)[O-])c3nonc23)CC1 [compound 145, 4-[4-(5-chloro-2-methylphenyl)piperazin-1-yl]-7-nitro-2,1,3-benzoxadiazole]
1 to 20 |  |  | O=[N+]([O-])c1ccc(N2CCN(c3ccc(O)cc3)CC2)c2nonc12 [compound 146, 4-[4-(7-nitro-2,1,3-benzoxadiazol-4-yl)piperazin-1-yl]phenol]
1 to 20 |  |  | O=[N+]([O-])c1ccc(N2CCN(c3ncccc3C(F)(F)F)CC2)c2nonc12 [compound 148, 4-nitro-7-{4-[3-(trifluoromethyl)pyridin-2-yl]piperazin-1-yl}-2,1,3-benzoxadiazole]
1 to 20 |  |  | CCOC(=O)c1cc(C#N)c(C)nc1N1CCN(c2ccc([N+](=O)[O-])c3nonc23)CC1 [compound 153, ethyl 5-cyano-6-methyl-2-[4-(7-nitro-2,1,3-benzoxadiazol-4-yl)piperazin-1-yl]nicotinate]
1 to 20 | ≥ 20 |  | O=[N+]([O-])c1ccc(Sc2nc3ccccc3s2)c2nonc12 [compound 158, 4-(1,3-benzothiazol-2-ylthio)-7-nitro-2,1,3-benzoxadiazole]
1 to 20 |  |  | O=S(=O)(Oc1ccc(N2CCN(S(=O)(=O)c3ccc(Cl)c4nonc34)CC2)cc1)c1ccc(Cl)c2nonc12 [compound 171, 4-{4-[(7-chloro-2,1,3-benzoxadiazol-4-yl)sulfonyl]piperazin-1-yl}phenyl 7-chloro-2,1,3-benzoxadiazole-4-sulfonate]
1 to 20 |  |  | O=S(=O)(c1ccc(Sc2cccc3cccnc23)c2nonc12)N1CCN(c2ncc(C(F)(F)F)cc2Cl)CC1 [compound 177, 8-{[7-({4-[3-chloro-5-(trifluoromethyl)pyridin-2-yl]piperazin-1-yl}sulfonyl)-2,1,3-benzoxadiazol-4-yl]thio}quinoline]
1 to 20 | ≥ 20 |  | O=S(=O)(c1c(Cl)ccc2nonc12)N1CCN(c2ncc(C(F)(F)F)cc2Cl)CC1 [compound 179, 5-chloro-4-({4-[3-chloro-5-(trifluoromethyl)pyridin-2-yl]piperazin-1-yl}sulfonyl)-2,1,3-benzoxadiazole]
1 to 20 |  |  | O=S(=O)(c1c(N2CCN(c3ccc(Cl)c(C(F)(F)F)c3)CC2)ccc2nonc12)N1CCN(c2ccc(Cl)c(C(F)(F)F)c2)CC1 [compound 181, 5-{4-[4-chloro-3-(trifluoromethyl)phenyl]piperazin-1-yl}-4-({4-[4-chloro-3-(trifluoromethyl)phenyl]piperazin-1-yl}sulfonyl)-2,1,3-benzoxadiazole]
1 to 20 |  |  | Cc1cc(C)cc(-c2ccc([N+](=O)[O-])c3nonc23)c1 [compound 286, 4-(3,5-Dimethylphenyl)-7-nitro-2,1,3-benzoxadiazole]
1 to 20 | 1 to 20 |  | O=[N+]([O-])c1ccc(-c2cccc(C(F)(F)F)c2)c2nonc12 [compound 309, 4-Nitro-7-[3-(trifluoromethyl)phenyl]-2,1,3-benzoxadiazole]
1 to 20 | 1 to 20 |  | Cc1cccc(-c2ccc([N+](=O)[O-])c3nonc23)c1 [compound 310, 4-(3-Methylphenyl)-7-nitro-2,1,3-benzoxadiazole]
1 to 20 | 1 to 20 |  | CC(C)(C)c1ccc(-c2ccc([N+](=O)[O-])c3nonc23)cc1 [compound 313, 4-(4-Tert-butylphenyl)-7-nitro-2,1,3-benzoxadiazole]
1 to 20 |  |  | COc1cccc(-c2ccc([N+](=O)[O-])c3nonc23)c1F [compound 314, 4-(2-Fluoro-3-methoxyphenyl)-7-nitro-2,1,3-benzoxadiazole]
< 1 |  |  | O=[N+]([O-])c1ccc(N2CCN(c3ncc(C(F)(F)F)cc3Cl)CC2)c2nonc12 [compound 315, 4-{4-[3-chloro-5-(trifluoromethyl)pyrindin-2-yl]piperazin-1-yl}-7-nitro-2,1,3-benzoxadiazole]
≥ 20 | ≥ 20 |  | O=S(=O)(Nc1ccc2cn[nH]c2c1)c1c(O)ccc2nonc12 [compound 339, 5-hydroxy-N-(1H-indazol-6-yl)2,1,3-benzoxadiazole-4-sulfonamide]
≥ 20 | ≥ 20 |  | O=S(=O)(c1c(N2CCC(Oc3ccccc3C(F)(F)F)CC2)ccc2nonc12)N1CCC(Oc2ccccc2C(F)(F)F)CC1 [compound 340, 5-[4-(2-{trifluoromethyl}phenoxy)piperidin-1-yl]-4-{[4-(2-{trifluoromethyl}phenoxy)piperidin-1-yl]sulfonyl}-2,1,3-benzoxadiazole]
≥ 20 | 1 to 20 |  | COc1cc(NS(=O)(=O)c2ccc(Cl)c3nonc23)c(OC)cc1Cl [compound 341, 7-chloro-N-(4-chloro-2,5-dimethoxyphenyl)-2,1,3-benzoxadiazole-4-sulfonamide]
1 to 20 |  | 1 to 20 | COc1cc(Nc2ccc(S(=O)(=O)Nc3cc(OC)c(Cl)cc3OC)c3nonc23)c(OC)cc1Cl [compound 342, N-(4-chloro-2,5-dimethoxyphenyl)-7-([4-chloro-2,5-dimethoxyphenyl]amino)-2,1,3-benzoxadiazole-4-sulfonamide]
≥ 20 | 1 to 20 |  | COc1cc(NS(=O)(=O)c2c(Cl)ccc3nonc23)c(OC)cc1Cl [compound 343, 5-chloro-N-(4-chloro-2,5-dimethoxyphenyl)-2,1,3-benzoxadiazole-4-sulfonamide]
≥ 20 | ≥ 20 |  | COc1cc(Nc2ccc3nonc3c2S(=O)(=O)Nc2cc(OC)c(Cl)cc2OC)c(OC)cc1Cl [compound 344, N-(4-chloro-2,5-dimethoxyphenyl)-5-([4-chloro-2,5-dimethoxyphenyl]amino)-2,1,3-benzoxadiazole-4-sulfonamide]

Compound | IC50 (APC11/APC2) [µM] | IC50 ([1]; Homo sapiens, A549, ICAM assay) [µM] | IC50 ([1]; ICAM assay) [µM]
N#CC1(c2ccccc2)CCN(c2ccc([N+](=O)[O-])c3nonc23)CC1 [compound 141, 1-(7-nitro-2,1,3-benzoxadiazol-4-yl)-4-phenylpiperidine-4-carbonitrile] | 1 to 20 |  | 
O=C(c1ccc(F)cc1)C1CCN(c2ccc([N+](=O)[O-])c3nonc23)CC1 [compound 142, (4-fluorophenyl)[1-(7-nitro-2,1,3-benzoxadiazol-4-yl)piperidin-4-yl]methanone] | 1 to 20 |  | 
CC1CC(C)CN(c2ccc([N+](=O)[O-])c3nonc23)C1 (stereo not drawn) [compound 144, 4-(3,5-dimethylpiperidin-1-yl)-7-nitro-2,1,3-benzoxadiazole] | 1 to 20 |  | 
O=[N+]([O-])c1ccc(N2CCC(O)(c3ccc(Cl)cc3)CC2)c2nonc12 [compound 159, 4-(4-chlorophenyl)-1-(7-nitro-2,1,3-benzoxadiazol-4-yl)piperidin-4-ol] | 1 to 20 |  | 

— US20050282818A1, “Ubiquitin ligase inhibitors” (Rigel Pharmaceuticals, Inc., priority 2004, published 2005)
